Results: article PMC7825173, “4’-O-Methylbroussochalcone B as a novel tubulin polymerization inhibitor suppressed the proliferation and migration of acute myeloid leukaemia cells” (BMC Cancer, 2021)

Columns and labels:
[1] = test system: β-tubulin; assay: Immunofluorescence staining of β-tubulin in ML-2 cells; type: cell-based, human; settings: 1 μM and 2 μM, 24 h
Experimental: ML-2 cells were seeded into 6-well plates and then treated with 4′-O-Methylbroussochalcone B for 24 h. ML-2 cells were washed with phosphate buffer solution (PBS), and then fixed in 4% paraformaldehyde. After blocking for 0.5 h in 5% goat serum albumin, ML-2 cells were incubated with anti-β-tubulin for 2 h. Then, ML-2 cells were washed by PBS and labeled by 4, 6-diamidino-2-phenylindole.

[2] = test system: ML-2 cells; assay: Transwell migration assay, ML-2 cells; type: cell-based, human; settings: 24 h
Experimental: (§1) The cells (100 μl, 1 × 10^6 cells/ml) were suspended in the medium which contained 0.1% FBS and plated to the upper chamber of the transwell. The lower wells were incubated with the addition of the medium (600 μl per well), which included CCL25 (100 ng/ml; Cedarlane Laboratories, Burlington, Canada) and 0.1% FBS. The cells were hatched for 24 h at 37 °C with 5% CO2. Finally, the cells in the lower chamber were counted under a light microscope.

[3] = test system: OCI-AML5 cells; assay: Transwell migration assay, OCI-AML5 cells; type: cell-based, human; settings: 24 h
Experimental: as §1

[4] = test system: OCI-AML5 cells; assay: Apoptosis assay (Annexin V-FITC/PI flow cytometry), OCI-AML5 cells; type: cell-based, human; settings: 48 h
Experimental: (§2) ML-2 cells and OCI-AML5 cells were seeded in 6-well culture plates and treated with certain concentration of 4′-O-Methylbroussochalcone B for 48 h. Cells were harvested and suspended in binding buffer containing Annexin V-FITC (0.5 mg/mL) and PI (0.5 mg/mL) then. After that, samples were incubated for 25 min in dark and analyzed with flow cytometry (Becton, Dickinson and Company, NJ).

[5] = test system: OCI-AML5 cells; assay: MTT antiproliferative assay, OCI-AML5 cells; type: cell-based, human; settings: 72 h
Experimental: (§3) Cells were grown in a 5% CO2 incubator at 37 °C. We used trypsin to digest cells in logarithmic growth phase. Then, we plated the cells in 96-well plates at 5000 cells per well evenly. After cell adherence, chalcones were added in the 96-well plates for 48 h or 72 h. We added MTT reagent to each well and incubated for 2 h in the incubator. Finally, the absorbance value was measured at 490 nm after treatment with DMSO.

[6] = test system: ML-2 cells; assay: Apoptosis assay (Annexin V-FITC/PI flow cytometry), ML-2 cells; type: cell-based, human; settings: 48 h
Experimental: as §2

[7] = test system: CESS cells; assay: MTT antiproliferative assay, CESS cells; type: cell-based, human; settings: 72 h
Experimental: as §3

[8] = test system: colchicine binding site of β-tubulin; assay: EBI competition assay in ML-2 cells; type: cell-based, human; settings: preincubation at 10 μM, Western Blot
Experimental: ML-2 cells were seeded in 6-well plates for 24 h. 4′-O-Methylbroussochalcone B and colchicine treated them for 2 h respectively. Then, EBI were added. After 90 min, ML-2 cells were harvested to do Western Blot analysis. The signals were then visualized using chemiluminescent substrate (Zhengzhou research company, Zhengzhou, China).

[9] = test system: ML-2 cells; assay: Cell cycle assay, ML-2 cells; type: cell-based, human; settings: 2 μM and 4 μM, 48 h
Experimental: (§4) The samples of fixed cells were stained with 50 μg/ml Propidium iodide (PI, Sigma) in the dark for 30 min at room temperature, following the manufacturer’s protocol. Then the samples were tested by flow cytometer (Becton, Dickinson and Company, NJ). Data were analyzed via CellQuest software.

[10] = test system: OCI-AML5 cells; assay: Cell cycle assay, OCI-AML5 cells; type: cell-based, human; settings: 2 μM and 4 μM, 48 h
Experimental: as §4

[11] = test system: GDM-1 cells; assay: MTT antiproliferative assay, GDM-1 cells; type: cell-based, human; settings: 72 h; for cell proliferation rate: 16 μM
Experimental: as §3

[12] = test system: tubulin; assay: Tubulin polymerization assay in vitro; type: biochemical; settings: 2 mg/mL tubulin, 60 min, 37 °C; read-out: IC50, inhibition of tubulin polymerization
Experimental: An amount of 2 mg/mL tubulin was resuspended in PEM buffer, consisted of 80 mM PIPES (pH 6.9), 2 mM MgCl2, 0.5 mM EGTA, and 15% glycerol. 4′-O-Methylbroussochalcone B (1 μM, 3 μM and 6 μM) was preincubated on ice. The reaction was monitored by a spectrophotometer in absorbance at 340 nm at 37 °C.
The tubulin assembly assay measured the extent of assembly of 2 mg/mL tubulin after 60 min at 37 °C. Data are presented as mean from three independent experiments.
The tubulin assembly assay measured the extent of assembly of 2 mg/mL tubulin after 60 minutes at 37 °C. Data are presented as mean from three independent experiments.

[13] = test system: ML-2 cells; assay: MTT antiproliferative assay, ML-2 cells; type: cell-based, human; settings: 72 h
Experimental: as §3

For 4′-O-Methylbroussochalcone B, the “expression of β-tubulin (immunofluorescence)” value [1] was “suppressed in a concentration-dependent manner”, the cell migration [2] was “evidently inhibited” and the cell migration [3] was “evidently inhibited”. It also gave an apoptotic rate ([4]; 2 μM) of 12.84%, an apoptotic rate ([4]; 4 μM) of 24.13% and an IC50 [5] of 2.03 µM. The “percentage of apoptotic cells (early and late phase)” value ([6]; 2 μM) was 13.68%, the “percentage of apoptotic cells (early and late phase)” value ([6]; 4 μM) was 55.04% and the IC50 [7] was 4.2 µM. For the same compound, the “formation of EBI: β-tubulin adduct” value [8] was “prevented the formation of EBI: β-tubulin adduct”, the “cell cycle distribution (G2-M phase)” value [9] was “arrested in the G2-M phase significantly” and the “cell cycle distribution (G2-M phase)” value [10] was “arrested in the G2-M phase significantly”. It also gave a cell proliferation rate [11] of 8.14%, an IC50 [11] of 3.57 µM and an IC50 [12] of 2.86 µM. It also gave an IC50 [13] of 1.16 µM.

For `CC1(C)C=Cc2cc(C(=O)/C=C/c3ccc(O)cc3)c(O)cc2O1` [Bavachromene], the cell proliferation rate [11] was 29.40% and the IC50 [12] was 3.11 ± 0.1 µM.

`CC(C)=CCc1cc(C(=O)/C=C/c2ccc(O)cc2)c(O)cc1O` [Broussochalcone B] showed a cell proliferation rate [11] of 29.67% and an IC50 [12] of 5.13 ± 0.45 µM.

`CC1(C)CCc2c(ccc(C(=O)/C=C/c3ccc(O)cc3)c2O)O1` [Dorsmanin A] was tested, and the cell proliferation rate [11] was 36.67% and the IC50 [12] was 4.39 ± 0.26 µM.

Work on `CC(C)=CCc1c(O)ccc(C(=O)/C=C/c2ccc(O)cc2)c1O` [Isobavachalcone] yielded a cell proliferation rate [11] of 57.33% and an IC50 [12] of 6.38 ± 0.12 µM.

In the case of `CC1(C)C=Cc2c(ccc(C(=O)/C=C/c3ccc(O)cc3)c2O)O1` [Isobavachromene], the cell proliferation rate [11] is reported as 69.00% and the IC50 [12] is reported as 8.24 ± 0.74 µM.
